Source: ChEMBL document CHEMBL1201862, “PubChem BioAssay data set” (2004)
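Tested at 5 concentrations; 48 h exposure; 96-well plates; endpoints linearly interpolated, else capped at highest concentration. GI50 marks 50% less growth.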 Calls of active or inactive are those of the source. No stated cut-off is given here; in the data, active = GI50 up to about 1.1 µM and inactive = higher.

Experiments:
Experiment in all cases: NCI tumour cell line growth inhibition, 48 h
786-0 = test system: 786-0
A549 = test system: A549
ACHN = test system: ACHN
BT-549 = test system: BT-549
CAKI-1 = test system: CAKI-1
CCRF-CEM = test system: CCRF-CEM
COLO 205 = test system: COLO 205
DU-145 = test system: DU-145
EKVX = test system: EKVX
HCC 2998 = test system: HCC 2998
HCT-116 = test system: HCT-116
HCT-15 = test system: HCT-15
HL-60 = test system: HL-60
HOP-62 = test system: HOP-62
HOP-92 = test system: HOP-92
HT-29 = test system: HT-29
IGROV-1 = test system: IGROV-1
K562 = test system: K562
KM12 = test system: KM12
M14 = test system: M14
MCF7 = test system: MCF7
MDA-N = test system: MDA-N
MOLT-4 = test system: MOLT-4
Malme-3M = test system: Malme-3M
NCI-H226 = test system: NCI-H226
NCI-H23 = test system: NCI-H23
NCI-H460 = test system: NCI-H460
NCI-H522 = test system: NCI-H522
NCI/ADR-RES = test system: NCI/ADR-RES
OVCAR-3 = test system: OVCAR-3
OVCAR-4 = test system: OVCAR-4
OVCAR-5 = test system: OVCAR-5
OVCAR-8 = test system: OVCAR-8
PC-3 = test system: PC-3
RPMI-8226 = test system: RPMI-8226
RXF 393 = test system: RXF 393
SF-268 = test system: SF-268
SF-295 = test system: SF-295
SF-539 = test system: SF-539
SK-MEL-28 = test system: SK-MEL-28
SK-MEL-5 = test system: SK-MEL-5
SK-OV-3 = test system: SK-OV-3
SN12C = test system: SN12C
SNB-19 = test system: SNB-19
SNB-75 = test system: SNB-75
SR = test system: SR
SW-620 = test system: SW-620
TK-10 = test system: TK-10
U-251 = test system: U-251
UACC-257 = test system: UACC-257
UACC-62 = test system: UACC-62
UO-31 = test system: UO-31
A498 = test system: A498
LOX IMVI = test system: LOX IMVI
MDA-MB-231 = test system: MDA-MB-231
MDA-MB-435 = test system: MDA-MB-435
SK-MEL-2 = test system: SK-MEL-2

Measured: GI50

CC(CC(C)(C)[N+](C)(C)C)[N+](C)(C)C (stereo not drawn)
> 100 µM: HCT-15
inactive: 786-0 > 100 µM | A549 > 100 µM | ACHN > 100 µM | BT-549 > 100 µM | CAKI-1 > 100 µM | CCRF-CEM > 100 µM | COLO 205 > 100 µM | DU-145 > 100 µM | EKVX > 100 µM | HCC 2998 > 100 µM | HCT-116 > 100 µM | HL-60 > 100 µM | HOP-62 > 100 µM | HOP-92 > 100 µM | HT-29 > 100 µM | IGROV-1 > 100 µM | K562 > 100 µM | KM12 > 100 µM | M14 > 100 µM | MCF7 > 100 µM | MDA-N > 100 µM | MOLT-4 > 100 µM | Malme-3M > 10 µM | NCI-H226 > 100 µM | NCI-H23 > 100 µM | NCI-H460 > 100 µM | NCI-H522 > 100 µM | NCI/ADR-RES > 100 µM | OVCAR-3 > 100 µM | OVCAR-4 > 100 µM | OVCAR-5 > 100 µM | OVCAR-8 > 100 µM | PC-3 > 100 µM | RPMI-8226 > 100 µM | RXF 393 > 100 µM | SF-268 > 100 µM | SF-295 > 100 µM | SF-539 > 100 µM | SK-MEL-28 > 100 µM | SK-MEL-5 > 100 µM | SK-OV-3 > 100 µM | SN12C > 100 µM | SNB-19 > 100 µM | SNB-75 88.9 µM | SR > 100 µM | SW-620 > 100 µM | TK-10 > 100 µM | U-251 > 100 µM | UACC-257 > 100 µM | UACC-62 > 100 µM | UO-31 > 100 µM

CC(C)(C)[Si](C)(C)OCC1OC(n2ccc(=O)[nH]c2=O)C(O[Si](C)(C)C(C)(C)C)[C@]12O[C@@H]2CO (stereo partly drawn)
11.9 µM: HCT-15
inactive: 786-0 18.2 µM | A498 18.6 µM | A549 10.9 µM | ACHN 11.9 µM | BT-549 3.9 µM | CAKI-1 20.4 µM | CCRF-CEM > 10 µM | COLO 205 17.5 µM | DU-145 19.4 µM | EKVX 17 µM | HCC 2998 20.8 µM | HCT-116 11.3 µM | HOP-62 16 µM | HOP-92 15 µM | HT-29 10.6 µM | IGROV-1 16.3 µM | K562 23.3 µM | KM12 14.8 µM | LOX IMVI 16.3 µM | M14 14.4 µM | MCF7 12.1 µM | MDA-MB-231 19.5 µM | MDA-MB-435 16 µM | MDA-N 20.9 µM | MOLT-4 8.3 µM | NCI-H226 13.8 µM | NCI-H23 14.1 µM | NCI-H460 14 µM | NCI-H522 14.1 µM | NCI/ADR-RES 17.4 µM | OVCAR-3 14.9 µM | OVCAR-4 13.6 µM | OVCAR-5 17.5 µM | OVCAR-8 29 µM | PC-3 4.58 µM | RPMI-8226 55.3 µM | SF-268 19.4 µM | SF-295 10.3 µM | SF-539 21.5 µM | SK-MEL-28 15.9 µM | SK-MEL-2 14.7 µM | SK-MEL-5 14 µM | SK-OV-3 15.6 µM | SN12C 15.7 µM | SNB-19 10.3 µM | SNB-75 18.4 µM | SR 3.61 µM | SW-620 20.2 µM | TK-10 14.8 µM | U-251 15.6 µM | UACC-257 18.2 µM | UACC-62 16.3 µM | UO-31 8.85 µM

c1ccc(-c2nnc(CCCCCCCCc3nnc(-c4ccccc4)o3)o2)cc1
inactive: 786-0 74 µM | A498 16.1 µM | A549 32 µM | ACHN > 100 µM | BT-549 > 100 µM | CAKI-1 46 µM | CCRF-CEM 52.5 µM | COLO 205 > 100 µM | DU-145 > 100 µM | EKVX > 100 µM | HCT-116 55.6 µM | HL-60 30.6 µM | HOP-62 97.3 µM | HOP-92 50.9 µM | HT-29 45.1 µM | IGROV-1 66.5 µM | K562 34.7 µM | KM12 63.8 µM | LOX IMVI 48.9 µM | M14 > 100 µM | MCF7 38.2 µM | MDA-MB-231 12.2 µM | MDA-MB-435 > 100 µM | MOLT-4 51.4 µM | Malme-3M > 100 µM | NCI-H226 > 100 µM | NCI-H23 > 100 µM | NCI-H460 50.5 µM | NCI-H522 25.9 µM | NCI/ADR-RES > 100 µM | OVCAR-3 65 µM | OVCAR-4 > 100 µM | OVCAR-5 > 100 µM | OVCAR-8 > 100 µM | PC-3 > 100 µM | SF-268 > 100 µM | SF-295 > 100 µM | SF-539 > 100 µM | SK-MEL-28 > 100 µM | SK-MEL-2 > 100 µM | SK-MEL-5 > 100 µM | SK-OV-3 > 100 µM | SN12C > 100 µM | SNB-19 > 100 µM | SNB-75 > 100 µM | SW-620 > 100 µM | TK-10 > 100 µM | U-251 53 µM | UACC-257 42.2 µM | UO-31 > 100 µM
> 100 µM: HCT-15
active: HCC 2998 < 0.01 µM
